Assays:
MV-4-11 cells = test: CCK-8 cell viability assay in MV-4-11 cells; assay type: cell-based; settings: Homo sapiens, MV4-11, 72 h, 10% FBS, 3 days
Outline: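 IC50 values come from vehicle-normalized CCK-8 absorbance at 450 nm, read 1–4 h after reagent addition. Before that, MV-4-11 cells seeded at 20000 per well were cultured 3 days at 37 °C with a compound dilution series.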

Bcl-2 WT = Bcl-2 WT (Homo sapiens, UniProt P10415); test: Bcl-2 WT inhibition, fluorescence polarization (Flu-BIM tracer) binding assay; settings: FP; 20 nM Bcl2, 5 nM Flu-BIM, 1 h incubation; read-out: Bcl-2 w.t. (FP)
Bcl-2 WT, sequence (P10415 whole entry): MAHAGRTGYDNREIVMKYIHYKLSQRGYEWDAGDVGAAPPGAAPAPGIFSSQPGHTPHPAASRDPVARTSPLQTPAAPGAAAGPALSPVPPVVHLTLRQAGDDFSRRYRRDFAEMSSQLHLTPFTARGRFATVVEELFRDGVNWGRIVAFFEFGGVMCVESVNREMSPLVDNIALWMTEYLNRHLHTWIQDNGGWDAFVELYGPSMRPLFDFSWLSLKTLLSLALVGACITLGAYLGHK

RS4; 11Bcl-2-G101V cells = test: CellTiter-Glo (CTG) cell viability assay in RS4;11-Bcl-2-G101V cells; assay type: cell-based; settings: 72 h, 10% FBS, 3 days
Outline: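 Luminescent ATP read-out (CellTiter-Glo) after 3-day compound treatment at 37 °C gave viability relative to vehicle, from which IC50 was fitted. Mutant Bcl-2 RS4;11 cells were seeded at 10000 per well and rested 4 h before dosing.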

CC1(C)CCC(CN2CCN(c3ccc(C(=O)NS(=O)(=O)c4ccc(NC[C@H]5CC[C@](C)(O)CC5)c([N+](=O)[O-])c4)c(Oc4cnc5[nH]ccc5c4)c3)CC2)=C(c2cc(-c3ccc(F)cc3F)cs2)C1 [Example 43, 2-((1H-pyrrolo[2,3-b]pyridin-5-yl)oxy)-4-(4-((2-(4-(2,4-difluorophenyl)thiophen-2-yl)-4,4-dimethylcyclohex-1-en-1-yl)methyl)piperazin-1-yl)-N-((4-((((1r,4r)-4-hydroxy-4-methylcyclohexyl)methyl)amino)-3-nitrophenyl)sulfonyl)benzamide]
IC50 (MV-4-11 cells): 8 nM | IC50 (Bcl-2 WT): 21.1 nM | IC50 (RS4; 11Bcl-2-G101V cells): 280 nM

CC1(C)CCC(CN2CCN(c3ccc(C(=O)NS(=O)(=O)c4ccc(NC[C@H]5COCCO5)c([N+](=O)[O-])c4)c(Oc4cnc5[nH]ccc5c4)c3)CC2)=C(c2cc(-c3ccc(Cl)cc3F)cs2)C1 [Example 44, (S)—N-((4-(((1,4-dioxan-2-yl)methyl)amino)-3-nitrophenyl)sulfonyl)-2-((1H-pyrrolo[2,3-b]pyridin-5-yl)oxy)-4-(4-((2-(4-(4-chloro-2-fluorophenyl)thiophen-2-yl)-4,4-dimethylcyclohex-1-en-1-yl)methyl)piperazin-1-yl)benzamide]
IC50 (MV-4-11 cells): 31 nM | IC50 (Bcl-2 WT): 31 nM | IC50 (RS4; 11Bcl-2-G101V cells): 830 nM

CC1(C)CCC(CN2CCN(c3ccc(C(=O)NS(=O)(=O)c4ccc(NC[C@H]5CC[C@](C)(O)CC5)c([N+](=O)[O-])c4)c(Oc4cnc5[nH]ccc5c4)c3)CC2)=C(c2cc(-c3cc(F)c(F)c(F)c3)cs2)C1 [Example 45, 2-((1H-pyrrolo[2,3-b]pyridin-5-yl)oxy)-4-(4-((4,4-dimethyl-2-(4-(3,4,5-trifluorophenyl)thiophen-2-yl)cyclohex-1-en-1-yl)methyl)piperazin-1-yl)-N-((4-((((1r,4r)-4-hydroxy-4-methylcyclohexyl)methyl)amino)-3-nitrophenyl)sulfonyl)benzamide]
IC50 (MV-4-11 cells): 57 nM | IC50 (Bcl-2 WT): 33.8 nM | IC50 (RS4; 11Bcl-2-G101V cells): 1680 nM

CC1(C)CCC(CN2CCN(c3ccc(C(=O)NS(=O)(=O)c4ccc(NC[C@H]5CC[C@](C)(O)CC5)c([N+](=O)[O-])c4)c(Oc4cnc5[nH]ccc5c4)c3)CC2)=C(c2cc(-c3ccc(F)c(F)c3F)cs2)C1 [Example 46, 2-((1H-pyrrolo[2,3-b]pyridin-5-yl)oxy)-4-(4-((4,4-dimethyl-2-(4-(2,3,4-trifluorophenyl)thiophen-2-yl)cyclohex-1-en-1-yl)methyl)piperazin-1-yl)-N-((4-((((1r,4r)-4-hydroxy-4-methylcyclohexyl)methyl)amino)-3-nitrophenyl)sulfonyl)benzamide]
IC50 (MV-4-11 cells): 9 nM | IC50 (Bcl-2 WT): 22.5 nM | IC50 (RS4; 11Bcl-2-G101V cells): 230 nM

CC1(C)CCC(CN2CCN(c3ccc(C(=O)NS(=O)(=O)c4ccc(NC[C@H]5COCCO5)c([N+](=O)[O-])c4)c(Oc4cnc5[nH]ccc5c4)c3)CC2)=C(c2cc(-c3ccc(C(F)F)cc3)cs2)C1 [Example 48, (S)—N-((4-(((1,4-dioxan-2-yl)methyl)amino)-3-nitrophenyl)sulfonyl)-2-((1H-pyrrolo[2,3-b]pyridin-5-yl)oxy)-4-(4-((2-(4-(4-(difluoromethyl)phenyl)thiophen-2-yl)-4,4-dimethylcyclohex-1-en-1-yl)methyl)piperazin-1-yl)benzamide]
IC50 (MV-4-11 cells): 9 nM | IC50 (Bcl-2 WT): 20.2 nM | IC50 (RS4; 11Bcl-2-G101V cells): 810 nM

CC1(C)CCC(CN2CCN(c3ccc(C(=O)NS(=O)(=O)c4ccc(NC[C@H]5CC[C@](C)(O)CC5)c([N+](=O)[O-])c4)c(Oc4cnc5[nH]ccc5c4)c3)CC2)=C(c2cc(-c3ccc(C(F)F)cc3)cs2)C1 [Example 49, 2-((1H-pyrrolo[2,3-b]pyridin-5-yl)oxy)-4-(4-((2-(4-(4-(difluoromethyl)phenyl)thiophen-2-yl)-4,4-dimethylcyclohex-1-en-1-yl)methyl)piperazin-1-yl)-N-((4-((((1r,4r)-4-hydroxy-4-methylcyclohexyl)methyl)amino)-3-nitrophenyl)sulfonyl)benzamide]
IC50 (MV-4-11 cells): 9 nM | IC50 (Bcl-2 WT): 38.4 nM | IC50 (RS4; 11Bcl-2-G101V cells): 420 nM

CC1(C)CCC(CN2CCN(c3ccc(C(=O)NS(=O)(=O)c4ccc(NC[C@H]5COCCO5)c([N+](=O)[O-])c4)c(Oc4cnc5[nH]ccc5c4)c3)CC2)=C(c2cc(-c3ccc(F)c(F)c3)cs2)C1 [Example 50, (S)—N-((4-(((1,4-dioxan-2-yl)methyl)amino)-3-nitrophenyl)sulfonyl)-2-((1H-pyrrolo[2,3-b]pyridin-5-yl)oxy)-4-(4-((2-(4-(3,4-difluorophenyl)thiophen-2-yl)-4,4-dimethylcyclohex-1-en-1-yl)methyl)piperazin-1-yl)benzamide]
IC50 (MV-4-11 cells): 65 nM | IC50 (Bcl-2 WT): 30.4 nM | IC50 (RS4; 11Bcl-2-G101V cells): 1950 nM

CC1(C)CCC(CN2CCN(c3ccc(C(=O)NS(=O)(=O)c4ccc(NC[C@H]5CC[C@](C)(O)CC5)c([N+](=O)[O-])c4)c(Oc4cnc5[nH]ccc5c4)c3)CC2)=C(c2cc(-c3ccc(F)c(F)c3)cs2)C1 [Example 51, 2-((1H-pyrrolo[2,3-b]pyridin-5-yl)oxy)-4-(4-((2-(4-(3,4-difluorophenyl)thiophen-2-yl)-4,4-dimethylcyclohex-1-en-1-yl)methyl)piperazin-1-yl)-N-((4-((((1r,4r)-4-hydroxy-4-methylcyclohexyl)methyl)amino)-3-nitrophenyl)sulfonyl)benzamide]
IC50 (MV-4-11 cells): 52 nM | IC50 (Bcl-2 WT): 35.5 nM | IC50 (RS4; 11Bcl-2-G101V cells): 1140 nM

CC1(C)CCC(CN2CCN(c3ccc(C(=O)NS(=O)(=O)c4ccc(NC[C@H]5CC[C@](C)(O)CC5)c([N+](=O)[O-])c4)c(Oc4cnc5[nH]ccc5c4)c3)CC2)=C(c2cc(-c3cc(F)c(F)cc3F)cs2)C1 [Example 53, 2-((1H-pyrrolo[2,3-b]pyridin-5-yl)oxy)-4-(4-((4,4-dimethyl-2-(4-(2,4,5-trifluorophenyl)thiophen-2-yl)cyclohex-1-en-1-yl)methyl)piperazin-1-yl)-N-((4-((((1r,4r)-4-hydroxy-4-methylcyclohexyl)methyl)amino)-3-nitrophenyl)sulfonyl)benzamide]
IC50 (MV-4-11 cells): 9 nM | IC50 (Bcl-2 WT): 27.8 nM | IC50 (RS4; 11Bcl-2-G101V cells): 430 nM

CC1(C)CCC(CN2CCN(c3ccc(C(=O)NS(=O)(=O)c4ccc(NC[C@H]5CC[C@](C)(O)CC5)c([N+](=O)[O-])c4)c(Oc4cnc5[nH]ccc5c4)c3)CC2)=C(c2cc(-c3c(F)ccc(F)c3F)cs2)C1 [Example 54, 2-((1H-pyrrolo[2,3-b]pyridin-5-yl)oxy)-4-(4-((4,4-dimethyl-2-(4-(2,3,6-trifluorophenyl)thiophen-2-yl)cyclohex-1-en-1-yl)methyl)piperazin-1-yl)-N-((4-((((1r,4r)-4-hydroxy-4-methylcyclohexyl)methyl)amino)-3-nitrophenyl)sulfonyl)benzamide]
IC50 (MV-4-11 cells): 7 nM | IC50 (Bcl-2 WT): 22.8 nM | IC50 (RS4; 11Bcl-2-G101V cells): 270 nM

CC1(C)CCC(CN2CCN(c3ccc(C(=O)NS(=O)(=O)c4ccc(NC[C@H]5CC[C@](C)(O)CC5)c([N+](=O)[O-])c4)c(Oc4cnc5[nH]ccc5c4)c3)CC2)=C(c2cc(-c3cc(F)cc(C#N)c3)cs2)C1 [Example 55, 2-((1H-pyrrolo[2,3-b]pyridin-5-yl)oxy)-4-(4-((2-(4-(3-cyano-5-fluorophenyl)thiophen-2-yl)-4,4-dimethylcyclohex-1-en-1-yl)methyl)piperazin-1-yl)-N-((4-((((1r,4r)-4-hydroxy-4-methylcyclohexyl)methyl)amino)-3-nitrophenyl)sulfonyl)benzamide]
IC50 (MV-4-11 cells): 72 nM | IC50 (Bcl-2 WT): 31.2 nM | IC50 (RS4; 11Bcl-2-G101V cells): 1140 nM

CC1(C)CCC(CN2CCN(c3ccc(C(=O)NS(=O)(=O)c4ccc(NC[C@H]5CC[C@](C)(O)CC5)c([N+](=O)[O-])c4)c(Oc4cnc5[nH]ccc5c4)c3)CC2)=C(c2cc(-c3ccc(C(C)(C)C#N)cc3)cs2)C1 [Example 56, 2-((1H-pyrrolo[2,3-b]pyridin-5-yl)oxy)-4-(4-((2-(4-(4-(2-cyanopropan-2-yl)phenyl)thiophen-2-yl)-4,4-dimethylcyclohex-1-en-1-yl)methyl)piperazin-1-yl)-N-((4-((((1r,4r)-4-hydroxy-4-methylcyclohexyl)methyl)amino)-3-nitrophenyl)sulfonyl)benzamide]
IC50 (MV-4-11 cells): 68 nM | IC50 (Bcl-2 WT): 16.1 nM | IC50 (RS4; 11Bcl-2-G101V cells): 1910 nM

CN(C)c1ccccc1-c1csc(C2=C(CN3CCN(c4ccc(C(=O)NS(=O)(=O)c5ccc(NC[C@H]6COCCO6)c([N+](=O)[O-])c5)c(Oc5cnc6[nH]ccc6c5)c4)CC3)CCC(C)(C)C2)c1 [Example 58, (S)—N-((4-(((1,4-dioxan-2-yl)methyl)amino)-3-nitrophenyl)sulfonyl)-2-((1H-pyrrolo[2,3-b]pyridin-5-yl)oxy)-4-(4-((2-(4-(2-(dimethylamino)phenyl)thiophen-2-yl)-4,4-dimethylcyclohex-1-en-1-yl)methyl)piperazin-1-yl)benzamide]
IC50 (MV-4-11 cells): 178 nM | IC50 (Bcl-2 WT): 20.1 nM | IC50 (RS4; 11Bcl-2-G101V cells): 3050 nM

CC1(C)CCC(CN2CCN(c3ccc(C(=O)NS(=O)(=O)c4ccc(NC[C@H]5CC[C@](C)(O)CC5)c([N+](=O)[O-])c4)c(Oc4cnc5[nH]ccc5c4)c3)CC2)=C(c2cc(-c3ccc(C(C)(C)O)cc3)cs2)C1 [Example 59, 2-((1H-pyrrolo[2,3-b]pyridin-5-yl)oxy)-N-((4-((((1r,4r)-4-hydroxy-4-methylcyclohexyl)methyl)amino)-3-nitrophenyl)sulfonyl)-4-(4-((2-(4-(4-(2-hydroxypropan-2-yl)phenyl)thiophen-2-yl)-4,4-dimethylcyclohex-1-en-1-yl)methyl)piperazin-1-yl)benzamide]
IC50 (MV-4-11 cells): 2 nM | IC50 (Bcl-2 WT): 29.3 nM | IC50 (RS4; 11Bcl-2-G101V cells): 290 nM

Source: patent publication US12577245B2, “Sulfonyl benzamide derivatives as Bcl-2 inhibitors” (ASCENTAGE PHARMA (SUZHOU) CO., LTD., priority 2021, dated 2026)
